From ChEMBL document CHEMBL4130359, “Indazole-based ligands for estrogen-related receptor α as potential anti-diabetic agents” (Eur J Med Chem, 2017)

Columns and labels:
[1] = test system: Rattus norvegicus; test: Toxicity in Zucker rat sub-chronic fa/fa prediabetic model assessed as body weight at 10 mg/kg, po qd for 29 days measured on day 29 post last dose (reference value: 533 +/- 10 g); assay type: organism-based; details: in vivo, 696 h
[2] = test system: Rattus norvegicus; test: Toxicity in Zucker rat sub-chronic fa/fa prediabetic model assessed as change in body weight at 10 mg/kg, po qd for 29 days measured on day 1 to 29 during compound dosing (reference value: 140 +/- 7 g); assay type: organism-based; details: in vivo, 696 h
[3] = test system: Rattus norvegicus; test: Toxicity in Zucker rat sub-chronic fa/fa prediabetic model assessed as food intake at 10 mg/kg, po qd for 29 days measured on day 1 to 29 during compound dosing (reference value: 969 +/- 18 g); assay type: organism-based; details: in vivo, 696 h
[4] = test system: Rattus norvegicus; test: Toxicity in Zucker rat sub-chronic fa/fa prediabetic model assessed as epididymal white adipose tissue weight at 10 mg/kg, po qd for 31 days measured on day 32 (reference value: 13.9 +/- 0.6 g); assay type: organism-based; details: in vivo, 744 h
[5] = test system: Rattus norvegicus; test: Toxicity in Zucker rat sub-chronic fa/fa prediabetic model assessed as brown adipose tissue weight at 10 mg/kg, po qd for 31 days measured on day 32 (reference value: 2.1 +/- 0.3 g); assay type: organism-based; details: in vivo, 744 h
[6] = test system: Rattus norvegicus; test: Toxicity in Zucker rat sub-chronic fa/fa prediabetic model assessed as liver weight at 10 mg/kg, po qd for 31 days measured on day 32 (reference value: 28 +/- 1.6 g); assay type: organism-based; details: in vivo, 744 h
[7] = test system: Rattus norvegicus; test: Toxicity in Zucker rat sub-chronic fa/fa prediabetic model assessed as heart weight at 10 mg/kg, po qd for 31 days measured on day 32 (reference value: 1.19 +/- 0.04 g); assay type: organism-based; details: in vivo, 744 h
[8] = test system: Rattus norvegicus; test: Toxicity in Zucker rat sub-chronic fa/fa prediabetic model assessed as triglyceride level per gram liver at 10 mg/kg, po qd for 31 days measured on day 32 (reference value: 163.4 +/- 8.3 mg); assay type: organism-based; details: in vivo, 744 h
[9] = test system: Rattus norvegicus; test: Toxicity in Zucker rat sub-chronic fa/fa prediabetic model assessed as insulin level per gram pancreas at 10 mg/kg, po qd for 31 days measured on day 32 (reference value: 55.2 +/- 5.5 ug); assay type: organism-based; details: in vivo, 744 h
[10] = test system: Rattus norvegicus; test: Toxicity in Zucker rat sub-chronic fa/fa prediabetic model assessed as serum triglyceride level at 10 mg/kg, po qd for 31 days measured on day 32 (reference value: 1382 +/- 268 mg/dl); assay type: organism-based; details: in vivo, 744 h
[11] = test system: Rattus norvegicus; test: Toxicity in Zucker rat sub-chronic fa/fa prediabetic model assessed as serum cholesterol level at 10 mg/kg, po qd for 31 days measured on day 32 (reference value: 295 +/- 91 mg/dl); assay type: organism-based; details: in vivo, 744 h
[12] = test system: Rattus norvegicus; test: Toxicity in Zucker rat sub-chronic fa/fa prediabetic model assessed as serum ALT level at 10 mg/kg, po qd for 31 days measured on day 32 (reference value: 151 +/- 23 U/L); assay type: organism-based; details: in vivo, 744 h
[13] = test system: Rattus norvegicus; test: Toxicity in Zucker rat sub-chronic fa/fa prediabetic model assessed as serum AST level at 10 mg/kg, po qd for 31 days measured on day 32 (reference value: 187 +/- 37 U/L); assay type: organism-based; details: in vivo, 744 h
[14] = test system: Rattus norvegicus; test: Toxicity in Zucker rat sub-chronic fa/fa prediabetic model assessed as serum BUN level at 10 mg/kg, po qd for 31 days measured on day 32 (reference value: 28.3 +/- […]); assay type: organism-based; details: in vivo, 744 h
[15] = test system: Rattus norvegicus; test: Toxicity in Zucker rat sub-chronic fa/fa prediabetic model assessed as serum creatinine level at 10 mg/kg, po qd for 31 days measured on day 32 (reference value: 0.71 +/- 0.07 mg/dl); assay type: organism-based; details: in vivo, 744 h
[16] = test system: Rattus norvegicus; test: Toxicity in […] chronic ob/ob model assessed as body weight at 10 mg/kg, po qd for 28 days measured on day 28 post last dose (reference value: 47.3 +/- 1.06 g); assay type: organism-based; details: in vivo, 672 h
[17] = test system: Rattus norvegicus; test: Toxicity in […] chronic ob/ob model assessed as change in body weight at 10 mg/kg, po qd for 28 days measured on day 1 to 28 during compound dosing (reference value: 9.9 +/- 1.27 g); assay type: organism-based; details: in vivo, 672 h
[18] = test system: Rattus norvegicus; test: Toxicity in […] chronic ob/ob model assessed as food intake at 10 mg/kg, po qd for 28 days measured on day 1 to 28 during compound dosing (reference value: 170.6 +/- 3 g); assay type: organism-based; details: in vivo, 672 h
[19] = test system: Rattus norvegicus; test: Toxicity in […] model assessed as liver weight at 10 mg/kg, po qd for 31 days measured on day 32 (reference value: 2.77 +/- 0.16 g); assay type: organism-based; details: in vivo, 744 h
[20] = test system: Rattus norvegicus; test: Toxicity in […] chronic ob/ob model assessed as epididymal white adipose tissue weight at 10 mg/kg, po qd for 31 days measured on day 32 (reference value: 3.92 +/- 0.14 g); assay type: organism-based; details: in vivo, 744 h
[21] = test system: Rattus norvegicus; test: Toxicity in […] chronic ob/ob model assessed as brown adipose tissue weight at 10 mg/kg, po qd for 31 days measured on day 32 (reference value: 0.59 +/- 0.05 g); assay type: organism-based; details: in vivo, 744 h
[22] = test system: Rattus norvegicus; test: Toxicity in […] chronic ob/ob model assessed as serum triglyceride level at 10 mg/kg, po qd for 31 days measured on day 32 (reference value: 329 +/- 36 mg/dl); assay type: organism-based; details: in vivo, 744 h
[23] = test system: Rattus norvegicus; test: Toxicity in […] model assessed as serum cholesterol level at 10 mg/kg, po qd for 31 days measured on day 32 (reference value: 195 +/- 5.5 mg/dl); assay type: organism-based; details: in vivo, 744 h
[24] = test system: Rattus norvegicus; test: Toxicity in […] model assessed as serum ALT level at 10 mg/kg, po qd for 31 days measured on day 32 (reference value: 127 +/- 9 U/L); assay type: organism-based; details: in vivo, 744 h
[25] = test system: Rattus norvegicus; test: Toxicity in […] model assessed as serum AST level at 10 mg/kg, po qd for 31 days measured on day 32 (reference value: 180 +/- 26 U/L); assay type: organism-based; details: in vivo, 744 h
[26] = test system: Rattus norvegicus; test: Toxicity in […] model assessed as serum BUN level at 10 mg/kg, po qd for 31 days measured on day 32 (reference value: 28.3 +/- […]); assay type: organism-based; details: in vivo, 744 h
[27] = test system: Rattus norvegicus; test: Toxicity in […] model assessed as serum creatinine level at 10 mg/kg, po qd for 31 days measured on day 32 (reference value: 0.55 +/- 0.018 mg/dl); assay type: organism-based; details: in vivo, 744 h
[28] = test system: Rattus norvegicus; test: Antidiabetic activity in […] chronic ob/ob model assessed as increase in plasma adiponectin level at 10 mg/kg, po qd for 31 days measured on day 32 by ELISA relative to control; assay type: functional

CN(CCOc1ccc(CC2SC(=O)NC2=O)cc1)c1ccccn1 (stereo not drawn) [ROSIGLITAZONE] was tested, and the Activity [1] was 617 g, the Activity [2] was 213 g and the Activity [3] was 1248 g. It also gave an Activity [4] of 22.7 g, an Activity [5] of 7.6 g and an Activity [6] of 20.9 g. The Activity [7] was 1.37 g, the Activity [8] was 102.5 mg and the Activity [9] was 90.7 µg. For the same compound, the Activity [10] was 195 mg/dL, the Activity [11] was 141 mg/dL and the Activity [12] was 136 U/L. The Activity [13] was 147 U/L, the Activity [14] was 27.2 mg/dL and the Activity [15] was 0.54 mg/dL. It also gave an Activity [16] of 50.5 g, an Activity [17] of 13 g and an Activity [18] of 157.3 g. For the same compound, the Activity [19] was 3.93 g, the Activity [20] was 3.32 g and the Activity [21] was 1.26 g. It also gave an Activity [22] of 77 mg/dL, an Activity [23] of 184 mg/dL and an Activity [24] of 366 U/L. For the same compound, the Activity [25] was 364 U/L, the Activity [26] was 33.1 mg/dL and the Activity [27] was 0.41 mg/dL. For the same compound, the “fold change (FC)” value [28] was 2.6.
